Source: patent US10138273B2, “Peptide ligands for hepatic stellate cells” (The Curators of the University of Missouri, priority 2015, dated 2018)
Read-outs that look alike come from different tables or passages of the source. Ends that are not written are not given here.

Key:
[1] = test system: rat hepatic stellate cells HSC T6; assay: Cellular uptake of 5 FAM labeled peptides in HSC T6 cells (flow cytometry); format: cell-based; details: 1 h incubation; for binding affinity compared to the control peptide and other selected peptides: HSC T6 cells
Protocol: (§1) We examined cellular uptake of 5 FAM labeled peptides (425, 431, and 515) in human hepatic stellate cells LX 2 upon treatment with nonenzymatic cell dissociation solution and trypsin. […] We also evaluated the effect of incubation time on cellular uptake of the peptides. 5 FAM labeled peptide 431 was incubated with LX 2 cells for different incubation time points. […] Therefore, nonenzymatic cell dissociation solution and 1 h incubation time were selected to evaluate all the peptides (420, 422, 425, 431, 504, and 515) in human hepatic stellate cells LX 2 and rat hepatic stellate cells HSC T6.

HSC T6 cells [2] = assay: Apparent equilibrium dissociation constant (Kd) on HSC T6 cells; format: binding, rat; details: 5 FAM labeled peptide, 1 h at 37° C., flow cytometry
Protocol: (§2) We next measured the apparent equilibrium dissociation constants (Kd) of the peptides (422, 425, 431, and 515) to LX 2 and HSC T6 cells as shown in FIG. 10A and FIG. 10B, respectively. The cells were incubated with 5 FAM labeled peptides at different concentrations for 1 h at 37° C. The labeled cells were detected by flow cytometry, and the apparent Kd value was calculated using GraphPad Prism. […] The result is consistent with the cellular uptake result depicted in FIGS. 7A-7B, 8A-8G, and 9A-9G.

HSC-T6 cells = assay: Cellular uptake of siRNA nanocomplexes in HSC-T6 cells; format: cell-based, rat; details: siRNA nanocomplex modified with Peptide-431 (SNPP) versus free siRNA, SNCP, SNVP, 50 nM siRNA
Protocol: (§3) The siRNA was labeled with Alexa Flour-647, and the nanocomplexes were prepared using neutravidin as we reported before. Approximately 100,000 cells (HSC-T6, LX-2)/well were seed into 24 well plate and incubator at 37 C for 12 hrs, free siRNA and nanocomplexes (SNCP, SNVP, SNPP) were then incubated with the cells at a final siRNA concentration of 50 nM. The fluorescence intensity of the cells at different intervals was detected by FACSCalibur Flow Cytometry (BD Biosciences, Franklin Lakes, N.J.). FIG. 17A depicts an evaluation of the cellular uptake of free siRNA and the nanocomplexes in HSC-T6 cells, and FIG. 17B depicts an evaluation of the cellular uptake of free siRNA and the nanocomplexes in LX-2 cells.

[3] = test system: human hepatic stellate cells LX 2; assay: Cellular uptake of 5 FAM labeled peptides in LX 2 cells (flow cytometry); format: cell-based; details: for binding affinity compared to the control peptide and other selected peptides: LX 2 cells
Protocol: as §1

IGF2R [4] = molecular target: T1, IGF2R (Homo sapiens, UniProt P11717); assay: Specificity of peptide 431 to IGF2R: uptake in IGF2R-silenced LX 2 cells; format: cell-based; design: the expression of IGF2R in LX 2 cells was silenced using siRNA; endogenous in cells; host or cells: LX-2 human hepatic stellate cells; details: for cellular uptake after silencing IGF2R with siRNA: LX 2, IGF2R siRNA versus scrambled siRNA
Protocol: In addition to affinity, we also evaluated the specificity of peptide 431 to IGF2R in LX 2 cells. For this purpose, the expression of IGF2R in LX 2 cells was silenced using siRNA As shown in FIGS. 11A-11B, the IGF2R siRNA (10 and 50 nM) dramatically knocked down the expression of IGF2R in LX 2 cells at the mRNA and protein levels.

HSCs = assay: Biodistribution of siRNA nanocomplexes in rats and rats with liver fibrosis; format: in vivo, rat; details: siRNA modified with Peptide-431 versus other delivery systems; tail vein, 0.065 mg/kg siRNA, 2 hrs
Protocol: The siRNA was labeled with Alexa Flour-647, and the nanocomplexes were prepared using neutravidin as we reported before. The free siRNA and nanocomplexes (SNCP, SNVP, SNPP) were injected into rats by tail vein at an siRNA dose of 0.065 mg/kg. After 2 hrs, the rats were sacrificed and the major organs including the liver, heart, lung, spleen, muscle, kidney, and blood were harvested for fluorescence imaging using a Xenogen IVIS imaging system.
The siRNA was labeled with Alexa Flour-647, and the nanocomplexes were prepared using neutravidin as we reported before. Liver fibrosis was inducted by injection of CCl4. The free siRNA and nanocomplexes (SNCP, SNVP, SNPP) were injected into rats with liver fibrosis by tail vein at an siRNA dose of 0.065 mg/kg. After 2 hrs, the rats were sacrificed and the major organs including the liver, heart, lung, spleen, muscle, kidney, and blood were harvested for fluorescence imaging using a small animal imaging system (Brunker MS FX Pro). FIG. 19 depicts images evaluating the biodistribution of free siRNA and the nanocomplexes in Rats with liver fibrosis.

HSC T6 cells [5] = assay: Cell viability (MTT) / apoptotic effect in HSC T6 cells; format: cell-based, rat; details: HSC-T6, fused to peptide-431
Protocol: (§4) LX 2 and HSC T6 (1×10^4 cells per well) cells were cultured in 96 well plates for 12 h in DMEM medium containing 10% FBS. The peptide 431/KLA fusion peptide, the mixture of peptide 431 and KLA peptide, and KIA peptide were incubated with the cells for 48 h. Cell viability was measured using MTT (3 (4,5 dimethylthiazol2 yi) 2,5 diphenyltetrazolium bromide) assay.
(§5) The proapoptotic peptide having the sequence of SEQ ID NO: 13, KLAKLAKKLAKLAK (KLA), is able to trigger mitochondrial disruption and induce cell death. However, the KLA peptide itself cannot enter cells to exert its proapoptotic activity. We therefore prepared a KLA/peptide 431 fusion peptide and examined its proapoptotic activity in LX 2 and HSC T6 cells.

LX-2 cells = assay: Cellular uptake of siRNA nanocomplexes in LX-2 cells; format: cell-based, human; details: siRNA nanocomplex modified with Peptide-431 (SNPP) versus free siRNA, SNCP, SNVP, 50 nM siRNA
Protocol: as §3

IGF2R [6] = molecular target: T1, IGF2R; assay: Phage ELISA on recombinant human IGF2R protein; format: binding; design: conducted using recombinant human IGF2R extracellular domain protein (the first, third, and fifth rounds); details: compared to peptide insertless control phage and other selected clones
Protocol: The binding affinity of the twenty-eight phages was evaluated by ELISA on recombinant human IGF2R protein. […] Additionally, the particular embodiment may include more specific aspects related to the materials and techniques employed by this method, which are described with more detail in the Experiment section below.
Twenty eight phage clones were randomly selected after the fourth and fifth rounds of biopanning and cultured in 1 mL of ER2738 bacteria (growing in early stage) at 37° C. for 4.5 h. Phage DNA was extracted, purified using the DNA clean system (Promega, Madison, Wis.), and then sequenced with an ABI Genetic Analyzer 3100 (Applied Biosystems, USA). The primer used for sequencing is SEQ ID NO: 14, 5′-CCCTCATAGTTAGCGTA ACG-3′. […] One of the phages was peptide insertless. In FIG. 3B, binding affinity of the selected phage clones encoding inserted peptides was evaluated by ELISA on recombinant human IGF2R protein.

LX 2 cells [7] = assay: Serum protein binding study: uptake in LX 2 cells in media containing FBS; format: cell-based, human; details: LX 2, OptiMEM and DMEM with FBS up to 10%
From the text: It is important to evaluate the stability of peptides in the presence of serum proteins, which may nonspecifically bind to IGF2R specific peptides. As a result, we evaluated the cellular uptake of 5 FAM labeled peptide 431 in LX 2 cells in the serum reduced medium OptiMEM and DMEM media containing different concentrations of FBS.

LX 2 cells [8] = assay: Cell viability (MTT) / apoptotic effect in LX 2 cells; format: cell-based, human
Protocol: as §4, §5

LX 2 cells [9] = assay: Apparent equilibrium dissociation constant (Kd) on LX 2 cells; format: binding, human
Protocol: as §2
In order to improve the binding affinity of peptide 431, […] may have the molecular structure depicted in FIG. 16A. Affinity of the dimeric peptide 431 was evaluated in LX 2 cells as described above.

Substance: VHWDFRQWWQPS [Peptide-431, IGF2R-specific peptide ligand encoded by phage 431]
- cellular uptake ([1]; 5 FAM labeled peptide, nonenzymatic cell dissociation solution, HSC T6): 12%
- binding affinity compared to the control peptide and other selected peptides [1]: highest binding affinity
- binding affinity compared to the control peptide and other selected peptides ([1]; listed as Phage No. 431): greatest binding affinity
- Kd (HSC T6 cells [2]): 12.3 µM
- cellular uptake of siRNA (HSC-T6 cells): highest cellular uptake of siRNA
- cellular uptake ([3]; 5 FAM labeled peptide, nonenzymatic cell dissociation solution, 1 h incubation, LX 2): 62%
- effect of incubation time on cellular uptake ([3]; LX 2, different incubation time points): time dependent increase
- binding affinity compared to the control peptide and other selected peptides ([3]; 1 h incubation): highest binding affinity
- binding affinity compared to the control peptide and other selected peptides ([3]; 1 h incubation, listed as Phage No. 431): greatest binding affinity
- effect of cell detachment method on cellular uptake ([3]; nonenzymatic cell dissociation solution versus trypsin, LX 2): higher cellular uptake in nonenzymatic cell dissociation solution
- cellular uptake after silencing IGF2R with siRNA (IGF2R [4]; listed as peptide 431): lower uptake
- cellular uptake after silencing IGF2R with siRNA (IGF2R [4]; listed as peptide-431): significantly reduced
- specificity to IGF2R on LX 2 cells (IGF2R [4]; concluded from IGF2R silencing): high specificity
- specificity for HSCs (biodistribution) (HSCs): highest specificity for HSCs
- uptake of proapoptotic KLA peptide (HSC T6 cells [5]): enhances the uptake
- cellular uptake of siRNA (LX-2 cells): highest cellular uptake of siRNA
- binding affinity to recombinant human IGF2R protein (phage ELISA) (IGF2R [6]): highest binding affinity
- binding affinity to recombinant human IGF2R protein (phage ELISA) (IGF2R [6]; listed as peptide-431): highest binding affinity and specificity
- cellular uptake in presence of FBS (LX 2 cells [7]): not significantly affected
- uptake of proapoptotic KLA peptide (LX 2 cells [8]; LX-2, fused to peptide-431): enhances the uptake

Substance: dimeric peptide 431: dimer of Peptide-431 linked via a lysine, imaging agent coupled to the linker (FIG. 16A) (VHWDFRQWWQPS; also: dimer of two peptide chains linked via a lysine, imaging agent coupled to the linker)
- improvement of binding affinity (Kd) of dimer compared to monomeric peptide 431 (LX 2 cells [9]): approximately 9 fold
- improvement of binding affinity (Kd) of dimer compared to monomeric peptide 431 (LX 2 cells [9]; listed as Dimerization of peptide-431): approximately 9 fold

Substance: KLAKLAKKLAKLAK (proapoptotic peptide) [KLA peptide, reference compound]
- apoptotic activity / cell death (LX 2 cells [8]; LX 2, 48 h, MTT): did not exhibit apoptotic activity
